One assay relates to A549. Kind of assay: Transwell migration assay, A549 cells. It counts as cell-based, human. The settings on record: 12 hr; for migration index numbers relative to control and to RNS peptide / migrated cell numbers relative to control and to RNS peptide: A549, 50 μm; for migrated cell numbers relative to control and to RNS peptide / cell numbers in comparison to control, RNS peptide and MANS peptide: FIG. 11; for cell numbers in comparison to control, RNS peptide and MANS peptide: A549, 25 μm. Here is the method: The human adenocarcinoma-derived alveolar epithelial cell line A549 (an invasive cell line) was obtained from the American Type Culture Collection (ATCC) and was cultured in RPMI-1640 supplemented with 10% fetal bovine serum and 100 U/ml penicillin/streptomycin, in 75 cm^2 tissue culture flasks. The cells reached confluence by the third day of culture at 37° C. in an atmosphere of 95% air and 5% CO2 and were maintained by serial passage.
The test peptides (MANS, RNS, BIO-11006, BIO-11000, BIO-11002, BIO-91200, and BIO-10901) were dissolved in PBS at a pH of 7.0; slow vortex mixing for about two hours aided solubility.
Transwell plates (24-well, […]; Costar, Cambridge, Mass., USA) were used to conduct the migration assay. The lower chambers of the transwell plates were filled with 600 μl of basal medium containing 10% FBS. The cells (1×10^5) were suspended in 100 μl of basal medium containing 1% BSA and added to the upper chamber, and the plates incubated at 37° C. with 5% CO2 for 12 hr in PBS (control), or the indicated test peptides at 10, 25 or 50 μM. The cells on the upper surface of the filters were removed using cotton swabs. The cells that migrated to the lower surface of the filters were washed, fixed, and stained with hematoxylin and counted under the microscope. The percent change in migration is determined by counting the number of cells that migrated to the lower surface of the filters. At least four separate microscopic fields are counted per membrane, with a total of three replicate experiments at each concentration. The statistics software “Prizm” was used for data analysis.

The subject of the next assay is CL1-5 cells. Kind of assay: Transwell migration assay, CL1-5 cells pretreated with peptide.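 On migration index: index equals control cell count divided by treated cell count.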 It counts as cell-based, human. The settings on record: 12 hours; for cell number: control approximately 105. How it is done:
CL1-5 cells, an aggressively metastatic cell line derived from a human adenocarcinoma, were cultured in RPMI 1640 media with 10% FBS, 37° C. at 95% […]/5% CO2 until ready for use. Transwell plates (24-well, 8-um pore size; Costar, Cambridge, Mass., USA) were used to conduct the migration assay. The lower chambers of the Transwell plates were filled with 600 μl of basal media containing 10% FBS. The cells (1×10^5) were pretreated with 50 or 100 μM of the indicated test peptide for 30 min, and then suspended in 100 μl of basal media containing 1% BSA and added to the upper chamber, and the cells then were incubated at 37° C. for 12 hr. The cells on the upper surface of the filters were removed using cotton swabs, and the cells that migrated to the lower surface of the filters were washed, fixed, and stained with hematoxylin and counted under the microscope. The percent change in migration was determined by counting the number of cells that migrated to the lower surface of the filters. At least 3 separate microscopic fields were counted per membrane (n=4).
Primary CL1-5 cells originated from human adenocarcinoma lung cancer Transwell plates with 24-wells, 8-μ pore size (Costar, Cambridge, Mass., USA) were used to conduct the migration assay. The lower chambers of the transwell plates were filled with 600 μL of basal media containing 10% FBS. The cells (1-2×10^5) were suspended in 100 μL of basal media containing 1% BSA. The test peptide at desired concentration was added to the upper chamber directly or after preincubation with cancer cells. The plates were then incubated at 37° C. for 12 hours. The cells on the upper surface of the filters were removed using cotton swabs. The cells that migrated to the lower surface of the filters were washed, fixed, and stained with hematoxylin and counted under the microscope. At least five separate microscopic fields are counted per membrane (n=3). The percent change in migration was determined by counting the number of cells that migrated to the lower surface of the filters.
The count means the actual number of cells which migrated to the lower chamber and counted by a light microscope at 40× magnification, presented as the mean number of cells in 10 randomly chosen fields for each treatment.
The “index” was calculated by dividing the number of cells that migrated in the presence of peptides by the number of cells that migrated randomly (control group). […]. This calculation can reflect the extent that the migration of cells was blocked by 30 minute pretreatment with MANS-related peptides.

In a further assay the test system is PC-9 cells. Kind of assay: Orthotopic lung injection xenograph model, PC-9 cells in nude mice. It is filed as in vivo. The conditions noted are these: 50 nmoles i.p. once every three days, 25 days. Here is the method: The metastatic activity of cancer cells in vivo after treatment with MANS peptide or BIO-11006 was assessed in the orthotopic lung injection xenograph model. After pretreatment with either PBS, or PBS+MANS, BIO-11006 (SEQ ID NO: 106), or the control RNS peptide at 100 μM for 4 hours, PC-9 cells were injected into the left lobe of the lung of nude mice. Seven days later, these mice were given systemic treatment with either PBS only (Con), RNS (additional control peptide), MANS or BIO-11006 at 50 nmoles per intraperitoneal injection once every three days. At 25 days (6 injections) post-seeding of these tumor cells, mice were sacrificed and the number of metastasized tumor nodules in the contralateral lung and other organs was counted.

[1] abbreviates: CL1-5, 50 μmolar pretreatment, FIG. 9.
Where [2] appears, read: CL1-5, 50 μmolar pretreatment, FIG. 9, control=1.0.
Setting [3] is: CL1-5, 100 μmolar pretreatment, FIG. 10.
Setting [4] is: CL1-5, 100 μmolar pretreatment, FIG. 10, control=1.0.
Setting [5] is: CL1-5, 50 μmolar, FIG. 8A, control=1, higher value signifies less migration.
Setting [6] is: CL1-5, 100 μmolar, FIG. 8B, control=1, higher value signifies less migration.
Setting [7] is: CL1-5, pretreatment at 50 μmolar, FIG. 7A.
The mark [8] stands for this setting: CL1-5, pretreatment at 100 μmolar, FIG. 7B.

Where no end group is shown, it is not given here. The star is where a group is joined. Myristoyl = CCCCCCCCCCCCCC(=O)*

On to “N-myristoyl-GAQFSKTAAK (Myristoyl-GAQFSKTAAK; listed as Homo sapiens) [BIO-11000]”, for which the “migration index numbers relative to control and to RNS peptide” value with A549 is recorded as “increased migration index numbers”. Moreover, the “migrated cell numbers relative to control and to RNS peptide” value in the assay with A549 is reported as “decreased migrated cell numbers”. For the same substance, the cell number entry with CL1-5 cells (setting [1]) was “approximately 70”; in the assay with CL1-5 cells (setting [3]), “approximately 50”. The figures for the migration index result in the assay with CL1-5 cells (setting [2]) and in the assay with CL1-5 cells (setting [4]) were “approximately 1.5” and “approximately 2.3”, respectively.

As to “N-myristoyl-GAQFSKTAAK-NH2 (Myristoyl-GAQFSKTAAK-NH2; SMILES CCCCCCCCCCCCCC(=O)NCC(=O)N[C@@H](C)C(=O)N[C@@H](CCC(N)=O)C(=O)N[C@@H](Cc1ccccc1)C(=O)N[C@@H](CO)C(=O)N[C@@H](CCCCN)C(=O)N[C@H](C(=O)N[C@@H](C)C(=O)N[C@@H](C)C(=O)N[C@@H](CCCCN)C(N)=O)[C@@H](C)O) [BIO-11002]”, in the assay on A549, the “cell numbers in comparison to control, RNS peptide and MANS peptide” value is reported as “significantly reduced cell numbers”; the “migration index numbers relative to control and to RNS peptide” value is “increased migration index numbers”; the “migrated cell numbers relative to control and to RNS peptide” value is recorded as “decreased migrated cell numbers”. Besides, in the assay on CL1-5 cells (setting [5]), the migration index entry is on record as “approximately 2.7”. Also, the migration index result in the assay on CL1-5 cells (setting [6]) is listed as “approximately 3.8”. In addition, the migrated cell numbers result with CL1-5 cells (setting [7]) was “approximately 50”. For the same substance, the migrated cell numbers entry in the assay with CL1-5 cells (setting [8]) is “approximately 25”.

Take “N-acetyl-GAQFSKTAA (Ac-GAQFSKTAA; listed as Homo sapiens) [BIO-10901]”: the “migration index numbers relative to control and to RNS peptide” value in the assay on A549 was “increased migration index numbers”. In the assay with A549, the “migrated cell numbers relative to control and to RNS peptide” value is on record as “decreased migrated cell numbers”. Moreover, the migration index result is on record as “approximately 1.75” in the assay on CL1-5 cells (setting [5]) and “approximately 2.7” in the assay on CL1-5 cells (setting [6]). Also, the migrated cell numbers result in the assay on CL1-5 cells (setting [7]) is listed as “approximately 60”; with CL1-5 cells (setting [8]) it was “approximately 35”.

For “N-myristoyl-AKGE (Myristoyl-AKGE; listed as Homo sapiens) [BIO-91200]”, the “cell numbers in comparison to control, RNS peptide and MANS peptide” value in the assay on A549 is reported as “significantly reduced cell numbers”. Moreover, in the assay on A549, the “migration index numbers relative to control and to RNS peptide” value is “increased migration index numbers”. Besides, in the assay on A549, the “migrated cell numbers relative to control and to RNS peptide” value is “decreased migrated cell numbers”. Moreover, the migration index result with CL1-5 cells (setting [5]) is given as “approximately 1.7”; in the assay on CL1-5 cells (setting [4]), “approximately 2.1”; in the assay on CL1-5 cells (setting [6]), “approximately 2.4”. Moreover, the cell number result in the assay on CL1-5 cells (setting [3]) was “approximately 55”. Besides, the values for the migrated cell numbers entry with CL1-5 cells (setting [7]) and in the assay with CL1-5 cells (setting [8]) were “approximately 65” and “approximately 40”, respectively.

On to “GTAPAAEGAGAEVKRASAEAKQAF (Myristoyl-GTAPAAEGAGAEVKRASAEAKQAF) [RNS peptide, reference compound]”, for which the figures for the cell number entry in the assay on CL1-5 cells (setting [1]) and in the assay with CL1-5 cells (setting [3]) were “approximately 90” and “approximately 95”, respectively. For the same substance, the migration index entry in the assay with CL1-5 cells (setting [2]) was “approximately 1.3”; in the assay with CL1-5 cells (setting [5]), “approximately 1.1”; in the assay with CL1-5 cells (setting [4]), “approximately 1.2”; with CL1-5 cells (setting [6]) it was “approximately 1”. Moreover, the migrated cell numbers result with CL1-5 cells (setting [7]) is on record as “approximately 95”; in the assay with CL1-5 cells (setting [8]), “approximately 90”. In addition, the “Metastases (affected mice/total mice) Diaphragm” value with PC-9 cells is given as 3/4. In addition, in the assay with PC-9 cells, the “Metastases (affected mice/total mice) Heart” value was 3/4. The “Metastases (affected mice/total mice) Intestines” value in the assay with PC-9 cells is 1/4. Also, in the assay on PC-9 cells, the “Metastases (affected mice/total mice) Spleen” value is 2/4. Besides, the “No. of Metastatic Lung Tumors Mean ± SE (L't)” value in the assay on PC-9 cells (left lung) was 1.00 ± 0.40;. In the assay with PC-9 cells (right lung), the “No. of Metastatic Lung Tumors Mean ± SE (R't)” value amounted to 5.75 ± 2.01. The “Tumor Size (mm) Mean ± SE” value in the assay with PC-9 cells (tumor at site of injection, cells pretreated 100 μM 4 hours) is 1.72 ± 0.41 mm.

These data come from patent US11466054B2, “Inhibitors of metastasis” (BIOMARCK PHARMACEUTICALS LTD., priority 2013, dated 2022).
